The test relates to Gardner 6C3HED lymphosarcoma ip, C3AKF1 mice, survival T/C. Put plainly: NCI In Vivo Anticancer Drug Screen. Data for tumor model Lymphosarcoma Gardner 6C3HED (intraperitoneal) in C3AKF1 (CHKRF1) mice. To be noted: endpoint: survival time, mean or median, higher = longer survival. How it is done: The antitumor activity of compounds was measured in mice bearing transplantable tumors. Survival or tumor size were measured and the results are expressed as the measurement made in the treated group (T) divided by the measurement made in the vehicle treated control group (C). The tumor model used in this assay is Lymphosarcoma Gardner 6C3HED (intraperitoneal) in C3AKF1 (CHKRF1) mice

[1] abbreviates: dose: 31.3 mg/kg/injection, schedule: Q01DX010 (ip), vehicle: saline.
The mark [2] stands for this setting: dose: 62.5 mg/kg/injection, schedule: Q01DX010 (ip), vehicle: saline.
The mark [3] stands for this setting: dose: 125.0 mg/kg/injection, schedule: Q01DX010 (ip), vehicle: saline.
The mark [4] stands for this setting: dose: 2.0 mg/kg/injection, schedule: Q01DX010 (ip), vehicle: saline.
[5] abbreviates: dose: 4.0 mg/kg/injection, schedule: Q01DX010 (ip), vehicle: saline.
The mark [6] stands for this setting: dose: 8.0 mg/kg/injection, schedule: Q01DX010 (ip), vehicle: saline.
[7] abbreviates: dose: 12.5 mg/kg/injection, schedule: Q01DX010 (sc), vehicle: steriod suspending solution.
The mark [8] stands for this setting: dose: 25.0 mg/kg/injection, schedule: Q01DX010 (sc), vehicle: steriod suspending solution.
Setting [9] is: dose: 50.0 mg/kg/injection, schedule: Q01DX010 (sc), vehicle: steriod suspending solution.
The mark [10] stands for this setting: dose: 2.5 mg/kg/injection, schedule: Q01DX010 (ip), vehicle: saline.
The mark [11] stands for this setting: dose: 5.0 mg/kg/injection, schedule: Q01DX010 (ip), vehicle: saline.
Where [12] appears, read: dose: 10.0 mg/kg/injection, schedule: Q01DX010 (ip), vehicle: saline.
The mark [13] stands for this setting: dose: 0.5 mg/kg/injection, schedule: Q01DX010 (ip), vehicle: saline.
Where [14] appears, read: dose: 1.0 mg/kg/injection, schedule: Q01DX010 (ip), vehicle: saline.
Setting [15] is: dose: 20.0 mg/kg/injection, schedule: Q01DX010 (ip), vehicle: saline.
Where [16] appears, read: dose: 250.0 mg/kg/injection, schedule: Q01DX010 (ip), vehicle: saline.
The mark [17] stands for this setting: dose: 500.0 mg/kg/injection, schedule: Q01DX010 (ip), vehicle: saline.

“And” between values parts separate entries of the source, which are not always exact repeats. Equal values may be shown once. Inconclusive results and toxic doses are left out. Numbered stars: 1 amine (or outer) side, 2 acyl side, 3 side chain; on linkers, the order of the positions; unused ones are H or OH. Bridge positions count the residues as written; N and C are the ends. Square brackets hold non-standard residues; d marks the D form. Peptide text beside a SMILES is read from it. I, II: the chains in the order shown. Actinocin(9to1) = Cc1c2oc3c(C)ccc(C(=O)[*:1])c3nc-2c(C(=O)[*:2])c(N)c1=O; aThr = C[C@H](O)[C@H](N)C(=O)O; NMeV = CN[C@H](C(=O)O)C(C)C; Sar = CNCC(=O)O

In the case of `CCn1cnc2c(=S)nc[nH]c21`, the T/C (dose: 15.6 mg/kg/injection, schedule: Q01DX010 (ip), vehicle: saline) is 91 % of control and 104 % of control; the T/C under setting [1] is 87 % of control and 89 % of control and 104 % of control; the T/C under setting [2] was 114 % of control; the T/C under setting [3] is 87 % of control and 104 % of control.

Turning to `N=C(N)c1ccc(Nc2ccc(C(=N)N)cc2)cc1`, the T/C is 103 % of control (dose: 3.0 mg/kg/injection, schedule: Q01DX010 (ip), vehicle: saline); 96 % of control (dose: 6.0 mg/kg/injection, schedule: Q01DX010 (ip), vehicle: saline); 96 % of control (dose: 12.0 mg/kg/injection, schedule: Q01DX010 (ip), vehicle: saline).

Take `O=C(Nc1ccc(NC2=NCCN2)cc1)c1ccc(C(=O)Nc2ccc(NC3=NCCN3)cc2)cc1`: the T/C under setting [4] was 180 % of control; the T/C under setting [5] is 195 % of control and 265 % of control; the T/C under setting [6] was 190 % of control; the T/C (dose: 16.0 mg/kg/injection, schedule: Q01DX010 (ip), vehicle: saline) is 115 % of control.

As to `Cc1c2oc3c(C)ccc(C(=O)N[C@@H]4C(=O)N[C@H](C(C)C)C(=O)N5CCC[C@H]5C(=O)N(C)CC(=O)N(C)[C@@H](C(C)C)C(=O)O[C@H]4C)c3nc-2c(C(=O)N[C@@H]2C(=O)N[C@H](C(C)C)C(=O)N3CCC[C@H]3C(=O)N(C)CC(=O)N(C)[C@@H](C(C)C)C(=O)O[C@H]2C)c(N)c1=O` (I: [aThr][dV]P[Sar][NMeV] / II: [aThr][dV]P[Sar][NMeV]; ester I:1-I:C, II:1-II:C; linker I:N-II:N via Actinocin(9to1)), the T/C reads like this: (dose: 0.01 mg/kg/injection, schedule: Q01DX010 (ip), vehicle: acid diluted with saline) 100 % of control and 110 % of control; (dose: 0.03 mg/kg/injection, schedule: Q01DX010 (ip), vehicle: acid diluted with saline) 120 % of control.

In the case of `CC/C(=C(/CC)c1ccc(O)cc1)c1ccc(O)cc1`, the T/C was 104 % of control and 105 % of control under setting [7]; 100 % of control and 105 % of control under setting [8]; 95 % of control and 100 % of control under setting [9]; 95 % of control and 100 % of control (dose: 100.0 mg/kg/injection, schedule: Q01DX010 (sc), vehicle: steriod suspending solution).

Consider `CC[C@]1(O)C[C@H]2CN(CCc3c([nH]c4ccccc34)[C@@](C(=O)OC)(c3cc4c(cc3OC)N(C=O)[C@H]3[C@@](O)(C(=O)OC)[C@H](OC(C)=O)[C@]5(CC)C=CCN6CC[C@]43[C@@H]65)C2)C1`, for which the T/C is 250 % of control (dose: 0.12 mg/kg/injection, schedule: Q01DX010 (ip), vehicle: saline); 285 % of control and 300 % of control (dose: 0.13 mg/kg/injection, schedule: Q01DX010 (ip), vehicle: saline).

For the molecule `Nc1nc(=S)c2[nH]cnc2[nH]1`, the T/C is 95 % of control and 100 % of control (dose: 1.25 mg/kg/injection, schedule: Q01DX010 (ip), vehicle: other); 120 % of control (dose: 1.25 mg/kg/injection, schedule: Q01DX010 (ip), vehicle: saline); 104 % of control (dose: 2.5 mg/kg/injection, schedule: Q01DX010 (ip), vehicle: other); 100 % of control and 110 % of control under setting [10]; 113 % of control (dose: 5.0 mg/kg/injection, schedule: Q01DX010 (ip), vehicle: other); 100 % of control and 105 % of control under setting [11]. Further, the T/C (dose: 10.0 mg/kg/injection, schedule: Q01DX010 (ip), vehicle: other) is 95 % of control; the T/C under setting [12] is 100 % of control and 120 % of control.

Consider `NC(=O)N(CCCl)N=O`, for which the T/C is, setting by setting: under setting [13], 150 % of control and 204 % of control; under setting [14], 250 % of control and 254 % of control; under setting [5], 86 % of control.

Regarding `CN(C)c1ccc(Nc2c3ccccc3nc3ccccc23)cc1`, the T/C (dose: 36.0 mg/kg/injection, schedule: Q01DX010 (ip), vehicle: saline) is 107 % of control; the T/C (dose: 54.0 mg/kg/injection, schedule: Q01DX010 (ip), vehicle: saline) is 185 % of control; the T/C (dose: 80.0 mg/kg/injection, schedule: Q01DX010 (ip), vehicle: saline) was 240 % of control; the T/C (dose: 120.0 mg/kg/injection, schedule: Q01DX010 (ip), vehicle: saline) was 214 % of control.

Consider `Cc1cc(N(CCCl)CCCl)ccc1N=Nc1ccccc1C(=O)O`, for which the T/C under setting [11] is 109 % of control and 116 % of control; the T/C under setting [12] was 113 % of control; the T/C under setting [15] is 118 % of control.

In the case of `CCN(CC)c1ccc2cc3ccc(=[N+](CC)CC)cc-3oc2c1`, the T/C was 100 % of control and 109 % of control under setting [14]; 100 % of control and 122 % of control under setting [4]; 100 % of control and 104 % of control under setting [5]; 95 % of control and 100 % of control under setting [6].

Take `CC(=O)N(C)C`: the T/C is 86 % of control and 90 % of control under setting [2]; 90 % of control and 95 % of control under setting [3]; 95 % of control and 100 % of control under setting [16]; 100 % of control under setting [17].

Turning to `Oc1cc(CN(CCCl)CCCl)c(O)cc1CN(CCCl)CCCl`, the T/C (dose: 0.63 mg/kg/injection, schedule: Q01DX010 (ip), vehicle: saline) is 113 % of control; the T/C under setting [10] is 168 % of control; the T/C under setting [11] was 91 % of control and 122 % of control.

With `CC(=O)O[C@]1(C(C)=O)CC[C@H]2[C@@H]3C[C@H](C)C4=CC(=O)C=C[C@]4(C)[C@@]3(F)[C@@H](O)C[C@@]21C`, the T/C runs as follows: under setting [7], 111 % of control; under setting [8], 92 % of control; under setting [9], 88 % of control.

Regarding `N#[N+]c1cnc([O-])[nH]c1=O`, the T/C runs as follows: under setting [10], 175 % of control; under setting [11], 158 % of control; under setting [12], 162 % of control.

On to `Nc1nc2n[nH]nc2c(=O)[nH]1`, for which the T/C (dose: 25.0 mg/kg/injection, schedule: Q01DX010 (ip), vehicle: alkali diluted with saline) was 115 % of control; the T/C (dose: 50.0 mg/kg/injection, schedule: Q01DX010 (ip), vehicle: alkali diluted with saline) was 100 % of control and 120 % of control.

Consider `CCCNc1ncnc2[nH]ncc12`, for which the T/C (dose: 3.13 mg/kg/injection, schedule: Q01DX010 (ip), vehicle: saline) is 86 % of control and 90 % of control; the T/C (dose: 6.25 mg/kg/injection, schedule: Q01DX010 (ip), vehicle: saline) is 90 % of control; the T/C (dose: 12.5 mg/kg/injection, schedule: Q01DX010 (ip), vehicle: saline) is 90 % of control and 95 % of control.

Consider `Clc1ncnc2nc[nH]c12`, for which the T/C runs as follows: (dose: 7.5 mg/kg/injection, schedule: Q01DX010 (ip), vehicle: saline) 87 % of control and 95 % of control; (dose: 15.0 mg/kg/injection, schedule: Q01DX010 (ip), vehicle: saline) 95 % of control; (dose: 30.0 mg/kg/injection, schedule: Q01DX010 (ip), vehicle: saline) 95 % of control.

On to `S=P(N1CCOCC1)(N1CC1)N1CC1`, for which the T/C is 91 % of control and 100 % of control (2×) under setting [10]; 91 % of control and 92 % of control and 104 % of control under setting [11]; 89 % of control and 91 % of control and 104 % of control under setting [12]; 108 % of control and 121 % of control under setting [15].

On to `NC(Cc1c[nH]c2ccc(N(CCCl)CCCl)cc12)C(=O)O` (configuration not stated), for which the T/C is, setting by setting: under setting [13], 159 % of control; under setting [14], 159 % of control and 181 % of control; under setting [4], 195 % of control and 231 % of control.

In the case of `O=c1cn[nH]c(=O)[nH]1`, the T/C under setting [2] was 100 % of control and 104 % of control; the T/C under setting [3] is 104 % of control; the T/C under setting [16] was 90 % of control and 95 % of control; the T/C under setting [17] is 90 % of control.

As to `CCOC(=O)NP(=O)(N1CC1(C)C)N1CC1(C)C` (configuration not stated), the T/C runs as follows: under setting [1], 103 % of control; under setting [2], 111 % of control.

On to `CS(=O)(=O)OCCN(CCOS(C)(=O)=O)c1ccc(N=O)cc1`, for which, under setting [14], the T/C was 107 % of control.

Turning to `C[C@@H]1C[C@@H]([C@H](O)CC2CC(=O)NC(=O)C2)C(=O)[C@@H](C)C1`, the T/C is 95 % of control and 104 % of control under setting [11]; 90 % of control and 100 % of control under setting [12]; 91 % of control and 118 % of control under setting [15].

In the case of `O=C(Nc1ccc(C2=NCCCN2)cc1)c1ccc(NC(=O)c2ccc(C3=NCCCN3)cc2)cc1`, the T/C was 183 % of control and 250 % of control (dose: 2.0 mg/kg/injection, schedule: Q01DX010 (ip), vehicle: other); 220 % of control and 300 % of control (dose: 4.0 mg/kg/injection, schedule: Q01DX010 (ip), vehicle: other); 177 % of control and 187 % of control (dose: 8.0 mg/kg/injection, schedule: Q01DX010 (ip), vehicle: other).

(Values after PubChem BioAssay AID232 (DTP/NCI, 2004).)
